Assay: logP by chromatography, internally standardized with toluene and triphenylene
Format: physicochemical
Conditions: pH = 7
Protocol: Microblends of herbicides were prepared using melts of mixtures of nonionic block copolymer and ethoxylated surfactants. Specifically, tristyrylphenol etoxylate (Soprophor BSU, Rhodia) was used in combination with Pluronic P123 (PEO20-PPO69-PEO20), The list of the herbicides and corresponding log P values (the log P values were measured according procedure described by Donovan and Pescatore, J. Chromatography A 2002, 952, 47-61) are presented in Table 24. All log P values were measured at pH 7, except for clethodim, measured at pH 2. First, a stock blend of Pluronic P123 and Soprophor BSU was prepared by melting together 50 g of Pluronic P123 with 50 g of Soprophor BSU at 70° C. to form a clear, homogeneous melt. Composition of the copolymer/surfactant mixture was P123:Soprophor=1:1 by weight. […] The mixtures were heated at 70° C. for 10 min and shaken.

Row | Molecule | logP Average
1 | COP(=S)(OC)Oc1c(Cl)cc(C)cc1Cl [Tolclofos-methyl] | 4.418
2 | Trisulfuron-methyl | 0.510

— US20090306003A1, “Pesticide Delivery System” (priority 2006, published 2009)
